Source: the supplement of paper PMC10307832

Key:
Test in all cases: relative viability (nuclei count vs DMSO), 5 days (fraction); higher = more cells survive
[1] = compound: NS(=O)(=O)OC[C@@H]1C[C@@H](n2ccc3c(N[C@H]4CCc5ccccc54)ncnc32)C[C@@H]1O [MLN4924] + CCNC(=O)c1noc(-c2cc(C(C)C)c(O)cc2O)c1-c1ccc(CN2CCOCC2)cc1 [Luminespib] (partner 0.01 µM)
Outline: (§1)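 Cells from lung cancer lines were seeded into 1536-well plates and, one day later, dosed by pin tool. Treatments were either a single drug or a fixed dose of an anchor drug with five library-drug doses (not always all listed) in √10 steps. After 5 days, nuclei were stained in a one-step fixation (final 0.05% Triton X-100, 1% formaldehyde, 1 ug/ml Hoechst) and counted on 4× images, and relative viability is the treated-to-vehicle nuclei ratio, as the median of duplicate plates.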

[2] = compound: CC[C@H](C)N1C=C(C2=C(C=C(C=C21)C3=CN=C(C=C3)N4CCNCC4)C(=O)NCC5=C(C=C(NC5=O)C)C)C [GSK126] + Nc1ncn([C@H]2C[C@H](O)[C@@H](CO)O2)c(=O)n1 [Decitabine] (partner 2 µM)
Outline: as §1

[3] = compound: C1CC(C1)(C(=O)O)C(=O)O.[NH2-].[NH2-].[Pt+2] [Carboplatin] + C[C@@H](Oc1cc(-c2cnn(C3CCNCC3)c2)cnc1N)c1c(Cl)ccc(F)c1Cl [Crizotinib] (partner 1 µM)
Outline: as §1

[4] = compound: C1CC(C1)(C(=O)O)C(=O)O.[NH2-].[NH2-].[Pt+2] [Carboplatin] + CC(C)C[C@H](NC(=O)[C@H](Cc1ccccc1)NC(=O)c1cnccn1)B(O)O [Bortezomib] (partner 0.002 µM)
Outline: as §1

Row | Cell Line | relative viability ([1]; first compound 0.04 µM) | relative viability ([1]; first compound 0.1265 µM) | relative viability ([1]; first compound 0.4 µM) | relative viability ([1]; first compound 1.265 µM) | relative viability ([1]; first compound 4 µM) | relative viability ([2]; first compound 0.08 µM) | relative viability ([2]; first compound 0.253 µM) | relative viability ([2]; first compound 0.8 µM) | relative viability ([2]; first compound 2.53 µM) | relative viability ([2]; first compound 8 µM) | relative viability ([3]; first compound 0.08 µM) | relative viability ([3]; first compound 0.253 µM) | relative viability ([3]; first compound 0.8 µM) | relative viability ([3]; first compound 2.53 µM) | relative viability ([3]; first compound 8 µM) | relative viability ([4]; first compound 0.08 µM) | relative viability ([4]; first compound 0.253 µM) | relative viability ([4]; first compound 0.8 µM) | relative viability ([4]; first compound 2.53 µM) | relative viability ([4]; first compound 8 µM)
1 | NCI-H1793 | 0.162 | 0.125 | 0.182 | 0.297 | 0.148 | 0.601 | 0.423 | 0.48 | 0.567 | 0.475 |  |  |  |  |  |  |  |  |  | 
2 | HCC-44 | 0.964 | 0.564 | 0.441 | 0.227 | 0.294 | 0.918 | 1.06 | 1.06 | 0.89 | 0.971 | 0.752 | 0.822 | 0.742 | 0.751 | 0.668 | 0.968 | 0.882 | 0.833 | 0.864 | 0.785
3 | NCI-H3122 | 0.078 | 0.063 | 0.0724 | 0.0583 | 0.0491 | 0.417 | 0.373 | 0.386 | 0.466 | 0.543 | 0.3 | 0.299 | 0.275 | 0.323 | 0.28 | 1.07 | 1.02 | 1.01 | 0.944 | 0.96
4 | COR-L23 | 0.67 | 0.569 | 0.42 | 0.174 | 0.139 | 0.467 | 0.373 | 0.389 | 0.448 | 0.433 | 0.561 | 0.645 | 0.606 | 0.48 | 0.28 | 0.887 | 0.987 | 0.918 | 0.707 | 0.355
5 | 201T | 1.15 | 0.916 | 0.887 | 0.384 | 0.29 | 0.865 | 0.899 | 0.916 | 0.86 | 0.946 | 1.03 | 1.06 | 1.02 | 1.06 | 0.994 | 1.18 | 1.11 | 1.13 | 1.14 | 1.06
6 | NCI-H23 | 0.231 | 0.175 | 0.228 | 0.208 | 0.214 | 0.314 | 0.337 | 0.3 | 0.268 | 0.334 | 0.638 | 0.542 | 0.516 | 0.488 | 0.39 | 1.1 | 1.11 | 1.08 | 0.861 | 0.784
7 | LCLC-103H | 0.947 | 0.92 | 0.724 | 0.217 | 0.166 | 0.795 | 0.855 | 0.797 | 0.737 | 0.759 | 1.06 | 1.01 | 1.01 | 1.19 | 1.01 | 1.13 | 1.33 | 1.06 | 1.24 | 1
8 | NCI-H2087 | 0.143 | 0.148 | 0.139 | 0.129 | 0.0909 | 0.246 | 0.272 | 0.269 | 0.293 | 0.346 | 0.817 | 0.907 | 0.8 | 0.845 | 0.769 | 0.945 | 0.699 | 0.781 | 0.833 | 0.521
9 | NCI-H1944 | 0.783 | 0.482 | 0.578 | 0.171 | 0.168 | 0.526 | 0.413 | 0.419 | 0.433 | 0.411 | 1.05 | 1.17 | 1 | 0.916 | 0.788 |  |  |  |  | 
